ChEMBL document CHEMBL5365507, “New Horizons in Cancer Treatment: A Closer Look at Novel PI3Kα Inhibitors” (ACS Med Chem Lett, 2023)

Tests used:
[1] = target: T1, Phosphatidylinositol 4,5-bisphosphate 3-kinase catalytic subunit alpha isoform (Homo sapiens, UniProt P42336); experiment: Inhibition of PIK3CA (unknown origin) expressed in MCF-10A cells incubated for 2 hrs by HTRF method; assay type: cell-based
[2] = target: T1, Phosphatidylinositol 4,5-bisphosphate 3-kinase catalytic subunit alpha isoform; experiment: Inhibition of PIK3CA (unknown origin) using diC8-PIP2 as substrate preincubated for 30 mins followed by substrate addition and measured after 60 mins by ADP-Glo assay

T1 sequence (P42336 whole entry, canonical isoform): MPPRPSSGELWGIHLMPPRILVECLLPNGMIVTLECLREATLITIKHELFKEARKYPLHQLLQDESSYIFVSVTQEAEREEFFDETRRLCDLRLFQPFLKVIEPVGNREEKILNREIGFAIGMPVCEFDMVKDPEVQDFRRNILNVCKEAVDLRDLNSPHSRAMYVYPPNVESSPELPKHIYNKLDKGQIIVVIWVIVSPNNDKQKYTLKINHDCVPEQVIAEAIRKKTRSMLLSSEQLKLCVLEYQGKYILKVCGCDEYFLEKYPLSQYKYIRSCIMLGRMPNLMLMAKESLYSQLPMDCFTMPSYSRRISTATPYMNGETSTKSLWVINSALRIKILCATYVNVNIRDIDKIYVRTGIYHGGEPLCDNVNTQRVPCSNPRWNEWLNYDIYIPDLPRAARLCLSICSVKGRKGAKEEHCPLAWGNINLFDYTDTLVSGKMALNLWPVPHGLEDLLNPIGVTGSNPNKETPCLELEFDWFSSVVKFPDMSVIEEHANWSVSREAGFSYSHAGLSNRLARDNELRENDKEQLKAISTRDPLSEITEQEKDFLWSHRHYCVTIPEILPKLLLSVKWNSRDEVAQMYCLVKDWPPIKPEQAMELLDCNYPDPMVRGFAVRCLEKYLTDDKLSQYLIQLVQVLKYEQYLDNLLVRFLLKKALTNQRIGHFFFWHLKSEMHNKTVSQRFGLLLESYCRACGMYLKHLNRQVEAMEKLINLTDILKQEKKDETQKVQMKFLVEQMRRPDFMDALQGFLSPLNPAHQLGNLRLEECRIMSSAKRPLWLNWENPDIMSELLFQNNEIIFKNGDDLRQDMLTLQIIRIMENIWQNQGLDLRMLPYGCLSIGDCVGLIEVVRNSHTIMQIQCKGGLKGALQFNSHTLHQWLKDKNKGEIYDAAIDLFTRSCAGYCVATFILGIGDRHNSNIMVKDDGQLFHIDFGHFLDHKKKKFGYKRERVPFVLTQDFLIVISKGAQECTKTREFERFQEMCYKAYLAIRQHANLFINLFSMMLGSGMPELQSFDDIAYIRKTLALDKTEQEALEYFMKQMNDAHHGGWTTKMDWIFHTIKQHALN

Row | IC50 [1] [nM] | IC50 [2] [nM] | Compound
1 | 1000 | 100 | Cc1ccccc1Nc1ncc(C(=O)NC2CC(F)(F)C2)cc1NC(=O)c1cc(F)cc(C(F)(F)F)c1
2 | 1000 | ≤ 100 | Cc1ccccc1Nc1ncc(C(=O)NC2C[S+]([O-])C2)cc1NC(=O)c1csc2ccccc12 (centres undefined)
3 | 5000 | ≤ 100 | Cc1ccccc1Nc1ncc(C(=O)NCc2nccs2)cc1NC(=O)c1csc2ccccc12
4 | ≤ 1000 | 100 | Cc1ccccc1Nc1ncc(C(=O)Nc2ccncc2)cc1NC(=O)c1cc(F)cc(C(F)(F)F)c1
5 | 1000 | 100 | Cc1ccccc1Nc1ncc(C(=O)NCc2ccc(Cl)cc2)cc1NC(=O)c1csc2ccccc12
6 | 1000 | 100 | Cc1ccccc1Nc1ncc(C(=O)NCC2CC(F)(F)C2)cc1NC(=O)c1cc(F)cc(C(F)(F)F)c1
7 | 1000 | 100 | Cc1ccccc1Nc1ncc(C(=O)NCc2ccnn2C)cc1NC(=O)c1cc(F)cc(C(F)(F)F)c1
8 | 1000 | ≤ 100 | Cc1ccccc1Nc1ncc(C(=O)NC2CS(=O)(=O)C2)cc1NC(=O)c1csc2ccccc12
9 | 1000 | 100 | Cc1ccccc1Nc1ncc(C(=O)NCc2ccn(C)n2)cc1NC(=O)c1cc(F)cc(C(F)(F)F)c1
10 | ≤ 1000 | ≤ 100 | Cc1ccccc1Nc1ncc(C(=O)NC2CS(=O)(=O)C2)cc1NC(=O)c1cc(F)cc(C(F)(F)F)c1
11 | 1000 | 100 | Cc1ccccc1Nc1ncc(C(=O)NCc2ccnn2C)cc1NC(=O)c1csc2ccccc12
12 | 1000 | 100 | Cc1ccccc1Nc1ncc(-c2cncc(C#N)c2)cc1NC(=O)c1cc(F)cc(C(F)(F)F)c1
